Laboratory results: patent EP0269311A2, “Methods of treating bone diseases by administration of a cysteine proteinase inhibitor” (Merck & Co., Inc., priority 1986, dated 1988)

Tests used:
papain = molecular target: T1, papain (Carica papaya, UniProt P00784); details: with the disappearance of the thiol group of papain; cited from earlier work
T1 sequence (P00784 134-345): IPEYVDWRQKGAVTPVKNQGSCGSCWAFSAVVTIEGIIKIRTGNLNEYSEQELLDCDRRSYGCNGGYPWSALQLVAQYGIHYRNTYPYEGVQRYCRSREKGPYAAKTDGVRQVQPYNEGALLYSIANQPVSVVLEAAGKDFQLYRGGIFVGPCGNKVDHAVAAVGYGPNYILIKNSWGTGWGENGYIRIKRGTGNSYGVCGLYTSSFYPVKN

serum Ca⁺⁺ [1] = assay: Rat model of secondary hyperparathyroidism (Ca++ deficient diet), serum Ca++; assay type: in vivo, Rats; details: intubated
Excerpt: In this model rats are fed a Ca⁺⁺ deficient diet, causing an enhanced release of parathyroid hormone (PTH) and secondary hyperparathyroidism. At this stage most of the serum Ca⁺⁺ is mobilized from bone. To maintain serum calcium levels within the normal range, bone resorption is stimulated by the released parathyroid hormone. This model was used to study the effect of Formula I compound on rats with secondary hyperparathyroidism. Rats (150-200 gr) were kept on a Ca⁺⁺ deficient diet for 7 days. Different doses of Formula I compound were intubated into animals (n=10) and serum Ca⁺⁺ was monitored at 0, 4, 8, 12 and 24 hours.

metalloproteinases = details: cited from earlier work
cathepsin H = molecular target: T2, cathepsin H (Homo sapiens, UniProt P09668); details: cited from earlier work
T2 sequence (P09668 98-335): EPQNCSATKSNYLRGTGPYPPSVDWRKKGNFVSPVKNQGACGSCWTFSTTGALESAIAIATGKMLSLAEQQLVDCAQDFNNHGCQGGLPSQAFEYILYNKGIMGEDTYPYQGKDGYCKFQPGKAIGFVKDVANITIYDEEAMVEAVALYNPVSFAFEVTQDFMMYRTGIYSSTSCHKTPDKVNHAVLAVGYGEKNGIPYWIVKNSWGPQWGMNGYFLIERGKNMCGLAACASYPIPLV

serine proteinases = details: cited from earlier work
serum Ca⁺⁺ [2] = assay: Rat model of humoral hypercalcemia of malignancy (transplanted Rice 500 Leydig cell tumor), serum Ca++; assay type: in vivo, male Fisher rats; details: for Serum mg % Ca++: 40 mg/kg/day intubated once a day from two days after tumor transplantation
Excerpt: A rat model that closely mimics the human syndrome of Humoral Hypercalcemia of Malignancy was described by Insogna et al, Endocrinology 114, 888-896 (1984). In this model a Rice 500 Leydig cell tumor is transplated in male Fisher rats. […] These findings exactly parallel those in human humoral hypercalcemia of malignancy. The same model was used to study the effect of the formula I compound on lowering serum Ca⁺⁺ levels in rodents with established malignant hypercalcemia. Rats (150-200 gr) were intubated once a day with three different doses of the formula I compound including 10 mg, 25 mg and 80 mg/kg/day as shown in Figure 1. Control animals received no compound. The compound was given on days 10-15 after tumor transplantation when all animals were hypercalcemic. In experiment No. 2 (Table 1), rodents were intubated once a day with 40 mg/kg, of the formula I compound two days after tumor transplantation. These studies were utilized to examine whether the formula I compound could prevent tumor-induced hypercalcemia in these animals which generally appears 8-10 days after transplantation.

cathepsin B = cathepsin B (Homo sapiens, UniProt P07858); details: cited from earlier work

In the case of `CC(C)C[C@H](NC(=O)[C@H]1O[C@@H]1C(=O)O)C(=O)NCCCCN=C(N)N` [Formula I compound, epoxysuccinyl-leucylamido (4-guanidino)butane], the inhibition of papain (papain) is given as “inhibit”, the “Serum mg % Ca++” value (serum Ca⁺⁺ [1]; 10 mg, 0 hours) is given as 11.5 ± 0.5 mg % and the “Serum mg % Ca++” value (serum Ca⁺⁺ [1]; 10 mg, 4 hours) is given as 10.6 ± 0.4 mg %. For the same molecule, the “Serum mg % Ca++” value (serum Ca⁺⁺ [1]; 10 mg, 8 hours) was 10.4 ± 0.5 mg %, the “Serum mg % Ca++” value (serum Ca⁺⁺ [1]; 10 mg, 12 hours) was 10.2 ± 0.4 mg % and the “Serum mg % Ca++” value (serum Ca⁺⁺ [1]; 10 mg, 24 hours) was 11.5 ± 0.6 mg %. For the same molecule, the “Serum mg % Ca++” value (serum Ca⁺⁺ [1]; 20 mg, 0 hours) was 11.3 ± 0.4 mg %, the “Serum mg % Ca++” value (serum Ca⁺⁺ [1]; 20 mg, 4 hours) was 10.2 ± 0.3 mg % and the “Serum mg % Ca++” value (serum Ca⁺⁺ [1]; 20 mg, 8 hours) was 9.7 ± 0.4 mg %. For the same molecule, the “Serum mg % Ca++” value (serum Ca⁺⁺ [1]; 20 mg, 12 hours) was 9.5 ± 0.3 mg %, the “Serum mg % Ca++” value (serum Ca⁺⁺ [1]; 20 mg, 24 hours) was 12.0 ± 0.3 mg % and the “Serum mg % Ca++” value (serum Ca⁺⁺ [1]; 60 mg, 0 hours) was 11.7 ± 0.6 mg %. For the same molecule, the “Serum mg % Ca++” value (serum Ca⁺⁺ [1]; 60 mg, 4 hours) was 9.8 ± 0.4 mg %, the “Serum mg % Ca++” value (serum Ca⁺⁺ [1]; 60 mg, 8 hours) was 9.5 ± 0.3 mg % and the “Serum mg % Ca++” value (serum Ca⁺⁺ [1]; 60 mg, 12 hours) was 8.9 ± 0.4 mg %. The “Serum mg % Ca++” value (serum Ca⁺⁺ [1]; 60 mg, 24 hours) was 12.7 ± 0.4 mg %, the “drop of serum Ca⁺⁺” value (serum Ca⁺⁺ [1]; most effective dose 40 mg/kg, in 12 hours) was 28.8% and the effect on metalloproteinases (metalloproteinases) was “unaffected”. For the same molecule, the “inhibition of cathepsin H” value (cathepsin H) was “inhibit”, the “effect on serine proteinases” value (serine proteinases) was “unaffected” and the “Serum mg % Ca++” value (serum Ca⁺⁺ [2]; day 2) was 10.5 ± 0.3 mg %. The “Serum mg % Ca++” value (serum Ca⁺⁺ [2]; day 4) was 10.1 ± 0.4 mg %, the “Serum mg % Ca++” value (serum Ca⁺⁺ [2]; day 6) was 10.2 ± 0.2 mg % and the “Serum mg % Ca++” value (serum Ca⁺⁺ [2]; day 8) was 10.3 ± 0.3 mg %. For the same molecule, the “Serum mg % Ca++” value (serum Ca⁺⁺ [2]; day 10) was 9.8 ± 0.4 mg %, the “Serum mg % Ca++” value (serum Ca⁺⁺ [2]; day 11) was 10.3 ± 0.4 mg % and the “Serum mg % Ca++” value (serum Ca⁺⁺ [2]; day 12) was 10.1 ± 0.3 mg %. The “Serum mg % Ca++” value (serum Ca⁺⁺ [2]; day 13) was 10.4 ± 0.4 mg %, the “Serum mg % Ca++” value (serum Ca⁺⁺ [2]; day 14) was 10.5 ± 0.3 mg % and the “Serum mg % Ca++” value (serum Ca⁺⁺ [2]; day 15) was 10.6 ± 0.4 mg %. The “tumor induced hypercalcemia (established)” value (serum Ca⁺⁺ [2]; given orally, 10 mg, 25 mg and 80 mg/kg/day on days 10-15 after tumor transplantation (Figure 1)) was “block”, the “tumor induced hypercalcemia (prevention)” value (serum Ca⁺⁺ [2]; given orally, 40 mg/kg once a day from two days after tumor transplantation (Table I)) was “can prevent” and the “inhibition of cathepsin B” value (cathepsin B) was “inhibit”.
